Measurements reported in the supplement of paper PMC8253809.

Legend:
SUDIPGXIII [1] = diffuse intrinsic pontine glioma line; experiment: area under dose-response curve of % growth inhibition (log2 RLU vs DMSO / staurosporine), 1e-11 to 1e-4 M (% x log10 M); higher = more growth inhibition
Method in brief: (§1)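 A 10-point threefold dilution series, mean top concentration 35 μM, was applied in triplicate to patient-derived pHGG/DIPG lines and astrocytes on 1% Geltrex-coated 384-well plates for 7 days (3 days for iAstro) at 37 °C, 5% CO2. Per-plate % activity between solvent and positive controls was calculated from log2-transformed CellTiter-Glo luminescence. Area under the curve followed from the trapezoid rule on a log-logistic fit, or on a smoothing spline when the sigmoid fit failed.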

iAstro [2] = astrocyte control; experiment: as above
Method in brief: as §1

SUDIPGXIX [3] = diffuse intrinsic pontine glioma line; experiment: as above
Method in brief: as §1

HGGX6 [4] = H3.3 G34R paediatric high-grade glioma line; experiment: as above
Method in brief: as §1

HGGX2 = paediatric high-grade glioma line; experiment: as above
Method in brief: as §1

SUDIPGIV [5] = diffuse intrinsic pontine glioma line; experiment: as above
Method in brief: as §1

DIPGX37 [6] = H3.3 K27M diffuse intrinsic pontine glioma line; experiment: as above
Method in brief: as §1

SUDIPGXXI [7] = diffuse intrinsic pontine glioma line; experiment: as above
Method in brief: as §1

SUDIPGXVII [8] = diffuse intrinsic pontine glioma line; experiment: as above
Method in brief: as §1

HABS [9] = astrocyte control; experiment: as above
Method in brief: as §1

HGGX39 [10] = paediatric high-grade glioma line; experiment: as above
Method in brief: as §1

DIPGX9 [11] = diffuse intrinsic pontine glioma line; experiment: as above
Method in brief: as §1

SUDIPGVI [12] = diffuse intrinsic pontine glioma line; experiment: as above
Method in brief: as §1

DIPGX29 [13] = H3.3 K27M diffuse intrinsic pontine glioma line; experiment: as above
Method in brief: as §1

DIPGX7 [14] = H3.3 K27M diffuse intrinsic pontine glioma line; experiment: as above
Method in brief: as §1

HGGX42 [15] = H3.3 G34R paediatric high-grade glioma line; experiment: as above
Method in brief: as §1

SUDIPGXIII [16] = experiment: maximal growth inhibition (yFin) relative to DMSO / staurosporine; higher = more efficacious
Method in brief: (§2)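 A pin tool was used to add a 10-point threefold dilution series (mean top concentration 35 μM), in triplicate, to patient-derived pHGG/DIPG cell lines and astrocyte controls seeded on 384-well plates coated with 1% Geltrex. After 7 days at 37 °C and 5% CO2 (3 days for iAstro), CellTiter-Glo luminescence was log2-transformed, normalised on each plate to % activity relative to negative (solvent) and positive control wells, and pooled. EC50 and maximal response (yFin) were read from the three- or four-parameter log-logistic fit with the lowest AICc.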

iAstro [17] = experiment: as above
Method in brief: as §2

SUDIPGIV [18] = experiment: as above
Method in brief: as §2

DIPGX37 [19] = experiment: as above
Method in brief: as §2

SUDIPGXXI [20] = experiment: as above
Method in brief: as §2

SUDIPGXVII [21] = experiment: as above
Method in brief: as §2

HGGX39 [22] = experiment: as above
Method in brief: as §2

SUDIPGVI [23] = experiment: as above
Method in brief: as §2

DIPGX29 [24] = experiment: as above
Method in brief: as §2

DIPGX7 [25] = experiment: as above
Method in brief: as §2

HGGX42 [26] = experiment: as above
Method in brief: as §2

SUDIPGXIII [27] = experiment: EC50 (inflection of fitted growth-inhibition curve) (log10 M)
Method in brief: as §2

iAstro [28] = experiment: as above
Method in brief: as §2

SUDIPGIV [29] = experiment: as above
Method in brief: as §2

DIPGX37 [30] = experiment: as above
Method in brief: as §2

SUDIPGXXI [31] = experiment: as above
Method in brief: as §2

SUDIPGXVII [32] = experiment: as above
Method in brief: as §2

HGGX39 [33] = experiment: as above
Method in brief: as §2

SUDIPGVI [34] = experiment: as above
Method in brief: as §2

DIPGX29 [35] = experiment: as above
Method in brief: as §2

DIPGX7 [36] = experiment: as above
Method in brief: as §2

HGGX42 [37] = experiment: as above
Method in brief: as §2

HGGX6 [38] = experiment: maximal growth inhibition (yFin) relative to DMSO / staurosporine; higher = more efficacious
Method in brief: as §2

HGGX6 [39] = experiment: EC50 (inflection of fitted growth-inhibition curve) (log10 M)
Method in brief: as §2

SUDIPGXIX [40] = experiment: maximal growth inhibition (yFin) relative to DMSO / staurosporine; higher = more efficacious
Method in brief: as §2

HABS [41] = experiment: as above
Method in brief: as §2

DIPGX9 [42] = experiment: as above
Method in brief: as §2

SUDIPGXIX [43] = experiment: EC50 (inflection of fitted growth-inhibition curve) (log10 M)
Method in brief: as §2

HABS [44] = experiment: as above
Method in brief: as §2

DIPGX9 [45] = experiment: as above
Method in brief: as §2

SMILES	area under dose-response curve (SUDIPGXIII [1])	area under dose-response curve (iAstro [2])	area under dose-response curve (SUDIPGXIX [3])	area under dose-response curve (HGGX6 [4])	area under dose-response curve (HGGX2)	area under dose-response curve (SUDIPGIV [5])	area under dose-response curve (DIPGX37 [6])	area under dose-response curve (SUDIPGXXI [7])	area under dose-response curve (SUDIPGXVII [8])	area under dose-response curve (HABS [9])	area under dose-response curve (HGGX39 [10])	area under dose-response curve (DIPGX9 [11])	area under dose-response curve (SUDIPGVI [12])	area under dose-response curve (DIPGX29 [13])	area under dose-response curve (DIPGX7 [14])	area under dose-response curve (HGGX42 [15])	maximal growth inhibition (SUDIPGXIII [16]) [%]	maximal growth inhibition (SUDIPGXVII [21]) [%]	maximal growth inhibition (SUDIPGVI [23]) [%]	maximal growth inhibition (HGGX42 [26]) [%]	further results
Fc1ccc(-c2c3cccc(C(F)(F)F)c3nn2Cc2ccc(F)cc2Cl)cc1	52.8	38.3	2.47	6.34	13.1	67.1	53	165	40.7	9.3	39.9	31.5	39.9	38.1	53.6	40.2	51.1	30.9	42.8	38.9	maximal growth inhibition (iAstro [17]): 33.9%; maximal growth inhibition (SUDIPGIV [18]): 60.3%; maximal growth inhibition (DIPGX37 [19]): 49.6%; maximal growth inhibition (SUDIPGXXI [20]): 112%; maximal growth inhibition (HGGX39 [22]): 38.1%; maximal growth inhibition (DIPGX29 [24]): 38.7%; maximal growth inhibition (DIPGX7 [25]): 40.8%; EC50 (log10 M) (SUDIPGXIII [27]): -5.05; EC50 (log10 M) (iAstro [28]): -5.13; EC50 (log10 M) (SUDIPGIV [29]): -5.12; EC50 (log10 M) (DIPGX37 [30]): -5.07; EC50 (log10 M) (SUDIPGXXI [31]): -5.13; EC50 (log10 M) (SUDIPGXVII [32]): -5.16; EC50 (log10 M) (HGGX39 [33]): -5.05; EC50 (log10 M) (SUDIPGVI [34]): -4.94; EC50 (log10 M) (DIPGX29 [35]): -4.98; EC50 (log10 M) (DIPGX7 [36]): -5.33; EC50 (log10 M) (HGGX42 [37]): -5.03
CS[C@H]1SC[C@H]2C(=O)N(C)[C@@H](C(C)C)C(=O)OC[C@@H](NC(=O)c3cnc4ccccc4n3)C(=O)N[C@@H](C)C(=O)N(C)[C@@H]1C(=O)N(C)[C@@H](C(C)C)C(=O)OC[C@@H](NC(=O)c1cnc3ccccc3n1)C(=O)N[C@@H](C)C(=O)N2C [ECHINOMYCIN]	335	139	520	337	383	505	508	577	425	371	507	510	399	489	488	432	70.4	96.4	71	76.3	maximal growth inhibition (HGGX6 [38]): 75.4%; EC50 (log10 M) (SUDIPGXIII [27]): -8.75; EC50 (log10 M) (HGGX6 [39]): -8.49; EC50 (log10 M) (SUDIPGXVII [32]): -8.81; EC50 (log10 M) (SUDIPGVI [34]): -10.8; EC50 (log10 M) (HGGX42 [37]): < -11
Nc1ccc2ncnc(NCCc3ccc(Oc4ccccc4)cc3)c2c1 [EVP4593]	348	113	178	156	71.8	296	275	224	171	141	216	183	242	179	447	173	84.8	35.9	54.6	44.9	maximal growth inhibition (SUDIPGXIX [40]): 47.8%; maximal growth inhibition (HGGX6 [38]): 38.5%; maximal growth inhibition (SUDIPGIV [18]): 74.9%; maximal growth inhibition (HABS [41]): 37.7%; maximal growth inhibition (HGGX39 [22]): 46.7%; maximal growth inhibition (DIPGX9 [42]): 46.2%; maximal growth inhibition (DIPGX29 [24]): 45.1%; EC50 (log10 M) (SUDIPGXIII [27]): -8.11; EC50 (log10 M) (SUDIPGXIX [43]): -7.71; EC50 (log10 M) (HGGX6 [39]): -8.04; EC50 (log10 M) (SUDIPGIV [29]): -7.95; EC50 (log10 M) (SUDIPGXVII [32]): -8.18; EC50 (log10 M) (HABS [44]): -7.75; EC50 (log10 M) (HGGX39 [33]): -8.62; EC50 (log10 M) (DIPGX9 [45]): -7.97; EC50 (log10 M) (SUDIPGVI [34]): -8.43; EC50 (log10 M) (DIPGX29 [35]): -7.98; EC50 (log10 M) (HGGX42 [37]): -7.84
